Assay results as given in patent EP0302435A1, “Method for augmenting antibody-dependent cellular cytotoxicity” (NEORX CORPORATION, priority 1987, dated 1989).

Tested on: LS-180 target cells
Experiment: PMN-ADCC target cell lysis assay (⁵¹Cr release)
Format: cell-based, human
Details: for % Cytotoxicity: PMNs pretreated 30 min, E:T 100:1, 3 h ADCC assay; for % Cytotoxicity / augmentation of PMN-mediated IgG₃ ADCC: antibody NR-CO-04; for augmentation of PMN-mediated IgG₃ ADCC: activator pretreatment of PMNs, summary of Table 2
Experimental: Peripheral blood polymorphonuclear leukocytes (PMNs) were obtained from healthy normal human donors. Blood (150 cc) was withdrawn by venipuncture in heparinized tubes and mixed with an equal volume of 3% dextran in phosphate-buffered saline (PBS). After sedimentation at 1 x g for 10 min at room temperature, the leukocyte-rich plasma was layered on top of lymphocyte separation medium (LSM, Organon Technica, Durham, NC). PMNs were purified by treating the PMNs and red blood cell (RBC) pellet with RBC lysing solution (0.800% w/v NH₄Cl, 0.1% w/v KHCO₃, 37.0 mg tetrasodium EDTA in 100 ml water at pH 7.3). After incubating approximately 5 min at room temperature, the volume was increased 3X with PBS and the cells washed twice by centrifugation. After resuspension of the cells in RPMI-5% FCS, the PMNs were used in cytotoxicity assays or were incubated with response modifiers.
An appropriate number of target cells were labeled with 200 µCi ⁵¹Cr (⁵¹Cr-Na₂CrO₃; New England Nuclear, Boston, MA) for 2 h at 37°C, with gentle mixing every 15-30 min. The labeled cells were washed three times with 15 ml RPMI followed by centrifugation at 250 x g for 5 min at room temperature. The final pellet was resuspended in RPMI containing 5% FCS, counted, and diluted to an appropriate concentration.
In a typical assay, effector PMNs at different effector:target ratios were added to wells of a microtiter plate (Falcon Plastics, Oxnard, CA), except for those wells to be used for determination of total and spontaneous release of ⁵¹Cr from target cells. For GM-CSF augmentation, PMNs were generally treated within the microtiter plates by the addition of the lymphokine. The effector cells were either washed before the addition of antibody and target cells, or were left in the presence of lymphokine during the ADCC assay.
NR-CO-04 antibody was added to appropriate wells at a concentration of 1 µg/well (4 µg/ml), and the microtiter plate was then incubated at 37°C for 3 h. […]
Wells used for determination of spontaneous ⁵¹Cr release received labeled target cells alone in 200 µl of RPMI-5% FCS; the wells used for determination of total ⁵¹Cr release received labeled target cells and 200 µl 1.0% NP-40.
After […] incubation, the microtiter plate was centrifuged at 250 x g for 5 min at room temperature, and 125 µl of supernatant was transferred from each well into a separate 12 x 75 mm glass tube. Each tube was then assayed for ⁵¹Cr release with a Beckman 5000 gamma counter.
PMN-ADCC assays were performed in triplicate, according to the procedure described in Example I.E., supra. The % lysis (or percent specific release) is indicative of the level of ADCC of target cells. Test release is the amount of release in wells containing effector cells and target cells.

Compound	% Cytotoxicity (10⁻⁷ M) [%]	% Cytotoxicity (10⁻⁸ M) [%]	% Cytotoxicity (10⁻⁹ M) [%]	augmentation of PMN-mediated IgG₃ ADCC	% Cytotoxicity (concentration not given) [%]	GM-CSF augmentation of PMN-ADCC (dose-dependent, 1 to 100 μM retinal, summary of Table 4)	low level of PMN-ADCC observed in the absence of GM-CSF stimulation (dose-dependent, summary of Table 4)
fMET-Leu-Phe peptide [fMLP]	16.2 ± 0.8	23.7 ± 1.2	15.6 ± 0.8	less effective than GM-CSF	–	–	–
CCCCCCCCCCCCCC(=O)O[C@@H]1[C@@H](C)[C@@]2(O)[C@@H](C=C(CO)C[C@]3(O)C(=O)C(C)=C[C@@H]23)[C@@H]2C(C)(C)[C@]12OC(C)=O [PMA, phorbol myristate acetate]	–	–	–	less effective than GM-CSF	18.8 ± 0.6	–	–
CC1=C(/C=C/C(C)=C/C=C/C(C)=C/C=O)C(C)(C)CCC1 [Retinal]	–	–	–	–	–	abrogated	further depressed
